Here are results for 10 molecules from ChEMBL document CHEMBL4004849, “Tetrazolylmethyl quinolines: Design, docking studies, synthesis, anticancer and antifungal analyses” (2017).

What all share (assay type): functional
The subject of one assay is SR. In words: Growth inhibition of human SR cells at 10^-5 M incubated for 48 hrs by sulforhodamine B assay relative to control. Background: In SRB staining, fixed cells bind dye roughly in proportion to their protein.
For another assay, the system named is OVCAR-3. In words: Growth inhibition of human OVCAR3 cells at 10^-5 M incubated for 48 hrs by sulforhodamine B assay relative to control.
The test system of a further assay is HT-29. Description: Growth inhibition of human HT-29 cells at 10^-5 M incubated for 48 hrs by sulforhodamine B assay relative to control.
A further assay relates to MDA-MB-435. Description: Growth inhibition of human MDA-MB-435 cells at 10^-5 M incubated for 48 hrs by sulforhodamine B assay relative to control.
The next assay deals with SF-268. Description: Growth inhibition of human SF268 cells at 10^-5 M incubated for 48 hrs by sulforhodamine B assay relative to control.
In the next assay the test system is CAKI-1. In words: Growth inhibition of human Caki1 cells at 10^-5 M incubated for 48 hrs by sulforhodamine B assay relative to control.
For a further assay, the system named is K562. Description: Growth inhibition of human K562 cells at 10^-5 M incubated for 48 hrs by sulforhodamine B assay relative to control.
In another assay the test system is DU-145. In words: Growth inhibition of human DU145 cells at 10^-5 M incubated for 48 hrs by sulforhodamine B assay relative to control.
The next assay concerns Malme-3M. Description: Growth inhibition of human MALME-3M cells at 10^-5 M incubated for 48 hrs by sulforhodamine B assay relative to control.
For the next assay, the system named is SN12C. Description: Growth inhibition of human SN12C cells at 10^-5 M incubated for 48 hrs by sulforhodamine B assay relative to control.
In a further assay the test system is Aspergillus fumigatus. Description: Antifungal activity against Aspergillus fumigatus at 100 ug/ml by disc diffusion method. To be noted: read-out: IZ. In general terms: In agar diffusion tests the substance spreads into inoculated agar from a disc or well.
The test system of another assay is SK-OV-3. In words: Growth inhibition of human SKOV3 cells at 10^-5 M incubated for 48 hrs by sulforhodamine B assay relative to control.
Another assay concerns NCI-H226. Description: Growth inhibition of human NCI-H226 cells at 10^-5 M incubated for 48 hrs by sulforhodamine B assay relative to control.

SMILES strings stand for the structures. Activity calls are given as the source filed them. The calls are words filed in the database; no cut-off is given here.

Take `Clc1nc2ccccc2cc1Cn1nnnc1CSc1ccccc1`: the “growth inhibition (GI)” value with SR, in the assay with OVCAR-3, in the assay with HT-29, in the assay with MDA-MB-435, in the assay on SF-268 and with CAKI-1 was “Active” each time. The “growth inhibition (GI)” value in the assay with K562, with DU-145, with Malme-3M, with SN12C, in the assay on SK-OV-3 and with NCI-H226 was “Active” throughout. Besides, in the assay with Aspergillus fumigatus, the zone of inhibition at 100 µg/mL is 16 mm.

In the case of `Clc1nc2ccc(Br)cc2cc1Cn1nnc(Cc2ccccc2)n1`, the “growth inhibition (GI)” value in the assay on SR, with OVCAR-3, in the assay with HT-29, in the assay with MDA-MB-435, in the assay with SF-268 and with CAKI-1 was “Active” in each case. The “growth inhibition (GI)” value with K562, in the assay with DU-145, with Malme-3M, in the assay with SN12C, in the assay on SK-OV-3 and in the assay on NCI-H226 was “Active” throughout. Further, the zone of inhibition at 100 µg/mL in the assay with Aspergillus fumigatus is 13 mm.

Turning to `COc1ccc2nc(Cl)c(Cn3nnnc3CSc3ccccc3)cc2c1`, the “growth inhibition (GI)” value with SR, in the assay on OVCAR-3, in the assay with HT-29, in the assay with MDA-MB-435, in the assay on SF-268 and in the assay on CAKI-1 was “Active” in each case. The “growth inhibition (GI)” value in the assay on K562, with DU-145, in the assay on Malme-3M, in the assay with SN12C, in the assay on SK-OV-3 and in the assay with NCI-H226 was “Active” in each case. Moreover, the zone of inhibition at 100 µg/mL in the assay on Aspergillus fumigatus turned out to be 18 mm.

`Cc1ccc2nc(Cl)c(Cn3nnnc3CSc3ccccc3)cc2c1`: the “growth inhibition (GI)” value in the assay on SR, in the assay with OVCAR-3, in the assay with HT-29, in the assay on MDA-MB-435, with SF-268 and in the assay on CAKI-1 was “Active” each time. The “growth inhibition (GI)” value in the assay with K562, in the assay on DU-145, in the assay with Malme-3M, with SN12C, in the assay with SK-OV-3 and in the assay on NCI-H226 was “Active” each time. For the same molecule, the zone of inhibition at 100 µg/mL in the assay on Aspergillus fumigatus was 16 mm.

Regarding `Clc1nc2ccccc2cc1Cn1nnnc1Cc1ccccc1`, the “growth inhibition (GI)” value in the assay with SR, in the assay with OVCAR-3, in the assay on HT-29, in the assay on MDA-MB-435, in the assay with SF-268 and in the assay on CAKI-1 was “Active” in each case. Also, the “growth inhibition (GI)” value in the assay with K562, with DU-145, in the assay on Malme-3M, in the assay on SN12C, with SK-OV-3 and in the assay with NCI-H226 was “Active” in each case. Also, the zone of inhibition at 100 µg/mL with Aspergillus fumigatus was 14 mm.

`Fc1ccc2nc(Cl)c(Cn3nnnc3CSc3ccccc3)cc2c1`: the “growth inhibition (GI)” value in the assay on SR, in the assay on OVCAR-3, in the assay with HT-29, with MDA-MB-435, in the assay on SF-268 and in the assay with CAKI-1 was “Active” in each case. For the same molecule, the “growth inhibition (GI)” value in the assay on K562, with DU-145, in the assay with Malme-3M, in the assay with SN12C, in the assay on SK-OV-3 and in the assay on NCI-H226 was “Active” throughout. In the assay with Aspergillus fumigatus, the zone of inhibition at 100 µg/mL worked out at 14 mm.

Take `COc1ccc2nc(Cl)c(Cn3nnnc3Cc3ccccc3)cc2c1`: the “growth inhibition (GI)” value in the assay with SR, in the assay with OVCAR-3, in the assay on HT-29, with MDA-MB-435, in the assay on SF-268 and in the assay on CAKI-1 was “Active” throughout. In addition, the “growth inhibition (GI)” value in the assay with K562, with DU-145, with Malme-3M, with SN12C, in the assay on SK-OV-3 and in the assay on NCI-H226 was “Active” each time. In the assay on Aspergillus fumigatus, the zone of inhibition at 100 µg/mL is 20 mm.

For the molecule `Clc1nc2ccc(Br)cc2cc1Cn1nnnc1CSc1ccccc1`, the “growth inhibition (GI)” value with SR, in the assay with OVCAR-3, with HT-29, in the assay on MDA-MB-435, with SF-268 and in the assay with CAKI-1 was “Active” in each case. Also, the “growth inhibition (GI)” value in the assay on K562, in the assay on DU-145, in the assay on Malme-3M, in the assay on SN12C, with SK-OV-3 and in the assay with NCI-H226 was “Active” each time. Besides, in the assay on Aspergillus fumigatus, the zone of inhibition at 100 µg/mL is 20 mm.

With `Fc1ccc2nc(Cl)c(Cn3nnnc3Cc3ccccc3)cc2c1`, the “growth inhibition (GI)” value with SR, with OVCAR-3, in the assay with HT-29, with MDA-MB-435, with SF-268 and in the assay on CAKI-1 was “Active” each time. Moreover, the “growth inhibition (GI)” value with K562, in the assay with DU-145, with Malme-3M, with SN12C, with SK-OV-3 and in the assay on NCI-H226 was “Active” each time. Also, the zone of inhibition at 100 µg/mL with Aspergillus fumigatus was found to be 10 mm.

For `Fc1ccc2nc(Cl)c(Cn3nnc(Cc4ccccc4)n3)cc2c1`, the “growth inhibition (GI)” value in the assay with SR, in the assay on OVCAR-3, in the assay with HT-29, in the assay with MDA-MB-435, in the assay with SF-268 and with CAKI-1 was “Active” throughout. Further, the “growth inhibition (GI)” value with K562, in the assay on DU-145, in the assay with Malme-3M, in the assay on SN12C, in the assay with SK-OV-3 and in the assay with NCI-H226 was “Active” each time. Moreover, the zone of inhibition at 100 µg/mL in the assay on Aspergillus fumigatus was determined as 15 mm.
